Laboratory results: ChEMBL document CHEMBL5120960, “Unveiling the Structure-Activity Relationships at the Orthosteric Binding Site of P2X Ion Channels: The Route to Selectivity” (J Med Chem, 2022)

Tests used:
Format in all cases: cell-based
P2X purinoceptor 7 [1] = molecular target: T1, P2X purinoceptor 7 (Homo sapiens, UniProt Q99572); experiment: Antagonist activity at human P2X7R expressing HEK293 cells assessed as reduction in intracellular Ca2+ influx pretreated with Fluo-4 for 1 hr followed by compound addition and further incubated for 30 mins in presence of ATP by multimode plate reader analysis
T1 sequence (Q99572 whole entry): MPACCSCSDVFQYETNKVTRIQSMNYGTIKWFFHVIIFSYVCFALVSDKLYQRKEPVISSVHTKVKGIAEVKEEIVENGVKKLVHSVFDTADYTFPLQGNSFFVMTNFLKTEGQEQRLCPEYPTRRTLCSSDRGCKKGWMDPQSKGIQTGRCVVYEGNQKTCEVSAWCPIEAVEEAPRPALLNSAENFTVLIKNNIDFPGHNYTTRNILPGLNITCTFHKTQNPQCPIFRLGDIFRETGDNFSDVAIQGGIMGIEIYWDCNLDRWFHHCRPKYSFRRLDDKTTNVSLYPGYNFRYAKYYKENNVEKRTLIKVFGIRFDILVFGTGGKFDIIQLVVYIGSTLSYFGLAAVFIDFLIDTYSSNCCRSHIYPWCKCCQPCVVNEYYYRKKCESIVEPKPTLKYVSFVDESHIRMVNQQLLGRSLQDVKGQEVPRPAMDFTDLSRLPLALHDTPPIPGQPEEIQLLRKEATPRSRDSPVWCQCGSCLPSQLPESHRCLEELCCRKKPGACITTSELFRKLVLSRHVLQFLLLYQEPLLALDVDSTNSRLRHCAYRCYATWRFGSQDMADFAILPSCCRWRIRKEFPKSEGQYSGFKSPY

P2X purinoceptor 4 [2] = molecular target: T2, P2X purinoceptor 4 (Homo sapiens, UniProt Q99571); experiment: […] activity at human P2X4R expressing HEK293 cells assessed as reduction in intracellular Ca2+ influx pretreated with Fluo-4 for 1 hr followed by compound addition and further incubated for 30 mins in presence of ATP by multimode plate reader analysis
T2 sequence (Q99571 whole entry): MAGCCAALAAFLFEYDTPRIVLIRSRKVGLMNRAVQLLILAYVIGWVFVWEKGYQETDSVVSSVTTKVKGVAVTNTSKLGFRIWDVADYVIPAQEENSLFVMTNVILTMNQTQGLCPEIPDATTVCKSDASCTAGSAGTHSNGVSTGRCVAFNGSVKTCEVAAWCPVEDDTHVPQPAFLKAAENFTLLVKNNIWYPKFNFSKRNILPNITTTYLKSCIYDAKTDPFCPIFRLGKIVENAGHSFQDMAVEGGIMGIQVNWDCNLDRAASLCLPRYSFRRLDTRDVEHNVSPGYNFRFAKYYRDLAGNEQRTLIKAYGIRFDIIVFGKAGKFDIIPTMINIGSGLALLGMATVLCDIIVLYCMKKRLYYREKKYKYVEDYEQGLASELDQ

P2X purinoceptor 1 [3] = molecular target: T3, P2X purinoceptor 1 (Homo sapiens, UniProt P51575); experiment: […] activity at human P2X1R expressing CHO cells assessed as reduction in intracellular Ca2+ influx pretreated with Fluo-4 for 1 hr followed by compound addition and further incubated for 30 mins in presence of ATP by multimode plate reader analysis
T3 sequence (P51575 whole entry): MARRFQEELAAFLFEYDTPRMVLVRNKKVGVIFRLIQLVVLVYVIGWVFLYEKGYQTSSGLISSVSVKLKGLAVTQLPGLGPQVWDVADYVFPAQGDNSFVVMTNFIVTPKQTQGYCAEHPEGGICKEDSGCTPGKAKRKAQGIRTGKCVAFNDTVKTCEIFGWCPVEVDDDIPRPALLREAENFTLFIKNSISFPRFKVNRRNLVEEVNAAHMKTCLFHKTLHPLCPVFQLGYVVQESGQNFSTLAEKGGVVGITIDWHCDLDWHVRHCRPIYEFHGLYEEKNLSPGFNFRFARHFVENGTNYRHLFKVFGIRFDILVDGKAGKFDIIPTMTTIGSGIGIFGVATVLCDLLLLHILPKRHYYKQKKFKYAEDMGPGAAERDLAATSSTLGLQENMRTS

P2X purinoceptor 3 [4] = molecular target: T4, P2X purinoceptor 3 (Homo sapiens, UniProt P56373); experiment: Antagonist activity at human P2X3R expressing CHO cells assessed as reduction in intracellular Ca2+ influx pretreated with Fluo-4 for 1 hr followed by compound addition and further incubated for 30 mins in presence of ATP by multimode plate reader analysis
T4 sequence (P56373 whole entry): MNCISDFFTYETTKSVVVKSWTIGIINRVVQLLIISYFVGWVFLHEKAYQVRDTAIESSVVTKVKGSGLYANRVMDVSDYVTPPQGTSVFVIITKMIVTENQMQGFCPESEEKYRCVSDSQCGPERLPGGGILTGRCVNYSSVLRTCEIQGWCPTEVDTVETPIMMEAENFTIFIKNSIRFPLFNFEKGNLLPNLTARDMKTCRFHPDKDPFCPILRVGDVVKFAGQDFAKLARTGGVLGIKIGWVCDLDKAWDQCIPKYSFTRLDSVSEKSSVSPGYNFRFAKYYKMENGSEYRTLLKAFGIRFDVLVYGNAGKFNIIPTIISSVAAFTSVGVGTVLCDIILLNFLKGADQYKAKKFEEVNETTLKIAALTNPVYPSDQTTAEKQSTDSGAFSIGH

P2X purinoceptor 2 [5] = molecular target: T5, P2X purinoceptor 2 (Homo sapiens, UniProt Q9UBL9); experiment: […] activity at human P2X2R expressing CHO cells assessed as reduction in intracellular Ca2+ influx pretreated with Fluo-4 for 1 hr followed by compound addition and further incubated for 30 mins in presence of ATP by multimode plate reader analysis
T5 sequence (Q9UBL9 whole entry): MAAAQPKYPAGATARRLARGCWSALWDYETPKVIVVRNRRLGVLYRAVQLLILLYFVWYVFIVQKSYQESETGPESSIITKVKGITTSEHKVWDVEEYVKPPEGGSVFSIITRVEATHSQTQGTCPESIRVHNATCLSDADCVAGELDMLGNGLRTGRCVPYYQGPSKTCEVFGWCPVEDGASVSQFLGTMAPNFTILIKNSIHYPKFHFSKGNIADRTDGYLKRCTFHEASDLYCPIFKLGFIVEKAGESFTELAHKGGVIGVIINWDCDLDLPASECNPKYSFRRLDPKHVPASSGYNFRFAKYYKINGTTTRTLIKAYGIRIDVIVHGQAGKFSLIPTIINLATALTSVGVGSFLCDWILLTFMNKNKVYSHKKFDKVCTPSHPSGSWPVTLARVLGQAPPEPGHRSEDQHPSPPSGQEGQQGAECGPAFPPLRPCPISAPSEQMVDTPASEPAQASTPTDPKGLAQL

P2X purinoceptor 4 [6] = molecular target: T2, P2X purinoceptor 4; experiment: Antagonist activity at human P2X4R expressing HEK293 cells assessed as reduction in intracellular Ca2+ influx pretreated with Fluo-4 for 1 hr followed by compound addition and further incubated for 30 mins in presence of ATP by multimode plate reader analysis
P2X purinoceptor 7 [7] = molecular target: T1, P2X purinoceptor 7; experiment: […] activity at human P2X7R expressed in HEK293 cells assessed as reduction in YO-PRO-1 iodide dye uptake preincubated for 30 mins followed by YO-PRO-1 iodide addition and measured after 2 hrs by fluorescence based multimode plate reader analysis
P2X purinoceptor 1 [8] = molecular target: T3, P2X purinoceptor 1; experiment: Antagonist activity at human P2X1R expressing CHO cells assessed as reduction in intracellular Ca2+ influx pretreated with Fluo-4 for 1 hr followed by compound addition and further incubated for 30 mins in presence of ATP by multimode plate reader analysis
P2X purinoceptor 7 [9] = molecular target: T1, P2X purinoceptor 7; experiment: […] activity at human P2X7R expressing HEK293 cells assessed as reduction in intracellular Ca2+ influx pretreated with Fluo-4 for 1 hr followed by compound addition and further incubated for 30 mins in presence of ATP by multimode plate reader analysis
P2X purinoceptor 2 [10] = molecular target: T5, P2X purinoceptor 2; experiment: Antagonist activity at human P2X2R expressing CHO cells assessed as reduction in intracellular Ca2+ influx pretreated with Fluo-4 for 1 hr followed by compound addition and further incubated for 30 mins in presence of ATP by multimode plate reader analysis
[11] = molecular target: T6, P2X2/P2X3 heterotrimeric receptor (Homo sapiens, UniProt P56373+Q9UBL9); experiment: Antagonist activity at human P2X2R/P2X3R expressing CHO cells assessed as reduction in intracellular Ca2+ influx pretreated with Fluo-4 for 1 hr followed by compound addition and further incubated for 30 mins in presence of ATP by multimode plate reader analysis
T6 sequence (Q9UBL9 whole entry): T5 sequence (Q9UBL9 whole entry)
T6 sequence (P56373 whole entry): T4 sequence (P56373 whole entry)

[12] = molecular target: T6, P2X2/P2X3 heterotrimeric receptor; experiment: […] activity at human P2X2R/P2X3R expressing CHO cells assessed as reduction in intracellular Ca2+ influx pretreated with Fluo-4 for 1 hr followed by compound addition and further incubated for 30 mins in presence of ATP by multimode plate reader analysis
P2X purinoceptor 3 [13] = molecular target: T4, P2X purinoceptor 3; experiment: […] activity at human P2X3R expressing CHO cells assessed as reduction in intracellular Ca2+ influx pretreated with Fluo-4 for 1 hr followed by compound addition and further incubated for 30 mins in presence of ATP by multimode plate reader analysis

Row | Structure (SMILES) | IC50 (P2X purinoceptor 7 [1]) [µM] | IC50 (P2X purinoceptor 4 [2]) [µM] | IC50 (P2X purinoceptor 1 [3]) [µM] | IC50 (P2X purinoceptor 3 [4]) [µM] | IC50 (P2X purinoceptor 2 [5]) [µM] | IC50 (P2X purinoceptor 4 [6]) [µM] | IC50 (P2X purinoceptor 7 [7]) [µM] | IC50 (P2X purinoceptor 1 [8]) [µM] | IC50 (P2X purinoceptor 7 [9]) [µM] | IC50 (P2X purinoceptor 2 [10]) [µM] | IC50 [11] [µM] | IC50 [12] [µM] | IC50 (P2X purinoceptor 3 [13]) [µM]
1 | O=c1[nH]c2cncnc2n1[C@@H]1O[C@H](COP(=O)(O)OP(=O)(O)OP(=O)(O)O)[C@@H](O)[C@H]1O | – | > 100 | > 100 | – | > 100 | – | > 100 | – | > 100 | – | – | > 100 | 11
2 | Nc1ncnc2c1ncn2[C@@H]1O[C@H](COP(=O)(O)OP(=O)(O)OP(=O)(O)O)[C@@H](O)[C@@H]1O | – | 10.5 | > 100 | – | > 100 | – | > 100 | – | > 100 | – | – | > 100 | > 100
3 | O=P(O)(O)OP(=O)(O)OP(=O)(O)OC[C@H]1O[C@@H](n2cnc3c2ncn2ccnc32)[C@H](O)[C@@H]1O | – | > 100 | > 100 | – | 0.417 | – | > 100 | – | > 100 | – | – | 0.282 | 1

More lines, now with the values ahead:

Row | IC50 (P2X purinoceptor 7 [1]) [µM] | IC50 (P2X purinoceptor 4 [2]) [µM] | IC50 (P2X purinoceptor 1 [3]) [µM] | IC50 (P2X purinoceptor 3 [4]) [µM] | IC50 (P2X purinoceptor 2 [5]) [µM] | IC50 (P2X purinoceptor 4 [6]) [µM] | IC50 (P2X purinoceptor 7 [7]) [µM] | IC50 (P2X purinoceptor 1 [8]) [µM] | IC50 (P2X purinoceptor 7 [9]) [µM] | IC50 (P2X purinoceptor 2 [10]) [µM] | IC50 [11] [µM] | IC50 [12] [µM] | IC50 (P2X purinoceptor 3 [13]) [µM] | Structure (SMILES)
4 | > 100 | > 100 | > 100 | > 100 | > 100 | > 100 | > 100 | > 100 | > 100 | > 100 | > 100 | > 100 | > 100 | COc1ccc(C(=O)O[C@@H]2[C@H](OC(=O)c3ccc(OC)cc3)[C@@H](COP(=O)(O)OP(=O)(O)OP(=O)(O)O)O[C@H]2n2cnc3c(N)ncnc32)cc1
5 | – | > 100 | 6.46 | – | > 100 | – | > 100 | – | > 100 | – | – | 0.363 | 4.27 | Nc1ncnc2c1ncn2[C@@H]1O[C@H](COP(=O)(O)OP(=O)(O)OP(=O)(O)O)[C@@H](O)[C@H]1N
6 | – | > 100 | > 100 | – | > 100 | – | > 100 | – | > 100 | – | – | 0.263 | 1.29 | CNc1ncnc2c1ncn2[C@@H]1O[C@H](COP(=O)(O)OP(=O)(O)OP(=O)(O)O)[C@@H](O)[C@H]1O
7 | – | > 100 | > 100 | – | > 100 | – | > 100 | – | > 100 | – | – | > 100 | > 100 | CO[C@@H]1[C@H](O)[C@@H](COP(=O)(O)OP(=O)(O)OP(=O)(O)O)O[C@H]1n1cnc2c(N)ncnc21
